Experimental findings from article PMC9544318, “Advanced Pyrrolidine‐Carbamate Self‐Immolative Spacer with Tertiary Amine Handle Induces Superfast Cyclative Drug Release” (Chemmedchem, 2022) are described below.

Common to all, as to format: physicochemical
Data set [1] can be described thus: Solubility observed in aqueous buffer/DMSO mixture of the release study. The procedure:
[25] The stability of carbamate Sp4-CPT may be ascribed to a suboptimal conformation of the piperidine spacer compared to the native pyrrolidine. […] The stability of Sp5-CPT was also analysed in a phosphate buffer solution at pH 7.5, with DMSO content increased to 20 % DMSO.

Data set [2] can be described thus: Carbamate cleavage study of SI spacer-CPT modules (CPT release by HPLC). The settings on record: for half-life at 1 mM: CPT release by HPLC, read-out: carbamate half-life (t1/2) (converted). From the text: We undertook the structural optimization of the pyrrolidine‐carbamate SI spacer Sp2, aimed at decreasing the carbamate half‐life (t 1/2) for a faster hydroxy cargo release. The molecular structures of the synthesized SI spacers are reported in Figure 2 (all synthetic procedures are reported in the Supporting Information). Here, the Sp2 pyrrolidine ring was replaced by either a piperidine (in Sp4) or an isoxazolidine (in Sp5) cycle. In particular, Sp4 was designed to assess the impact of the cyclic amine ring size on the SI spacer degradation.[20] On the other hand, the use of an isoxazolidine ring in Sp5 aimed at evaluating the contribution of the “α‐effect” to the spacer reactivity.[21] While Sp4 was prepared starting from racemic 2‐piperidinecarbaldehyde, the synthesis of Sp5 was inspired by Bode's route to 5‐oxaproline.[22] Moreover, as we recently observed the inhibitory effects on the spacer cyclization given by a phosphate monoester group,[23] we devised the SI spacer modification with a basic handle. Since at physiological pH (approximately 7.4) the pyrrolidine is mostly present as protonated species, a second amine handle may force the pyrrolidine deprotonation, thus lowering its pK a value and increasing its nucleophilic character.[24] To this end, SI spacers Sp3 and Sp6/8 were endowed with a tertiary amine handle connected either at the carbamate N atom (in Sp3 and Sp7) or at the pyrrolidine ring (in Sp6 and Sp8). While the former spacers were rapidly obtained by reductive amination of Boc‐L‐prolinal, the latter were prepared by multistep synthesis, starting from oxygenated proline derivatives, such as 4‐oxo‐L‐proline and hydroxyproline. Firstly, the exocyclic secondary amine of SI spacers Sp3/8 was conjugated to the tertiary hydroxy group of the anticancer drug Camptothecin (CPT) via carbamate bond. As described recently,[19, 23] the final spacer‐drug modules Sp3/8‐CPT (Figure 2) were isolated as trifluoroacetate salts. These compounds were dissolved in a DMSO/phosphate buffer (pH 7.5) mixture and incubated at 37 °C, followed by aliquot collection at different time points and CPT release analysis by HPLC. The percentage of intact carbamate calculated from peak integrals was plotted versus time, and the spacer cyclization rates were estimated in terms of carbamate half‐life (t 1/2).
Carbamate Cleavage Studies
Experimental Procedure for Sp-CPT Modules
Stock solutions of lyophilized SI spacer-CPT modules (concentration: 10 mM in DMSO) were diluted 1:10 (final concentration: 1 mM) with 25 mM phosphate buffer (pH 7.4). Immediately after preparation, the mixtures were incubated at 37 °C. Aliquots were collected at different time points and diluted 1:4 (final concentration: 250 μ M) with a blocking buffer (8:2 H2O/CH3CN + 0.2% TFA).
The diluted aliquots were injected into an analytical HPLC-PDA system (see Materials and Methods), using the following parameters: […]
Gradient From 10% B to 50% B in 26 min.
Areas under the curve (AUC) of the detected peaks were measured using software associated to the HPLC systems. The rate of free OH release from the starting carbamate were obtained by calculating the relative ratios of AUC values corresponding to the amine -bearing prodrug and the free payload. Data were plotted versus time and half-lives (t1/2) were calculated by non -linear fitting (exponential, one-phase decay) using GraphPad Prism software .
(1 picture or pasted object on this page, not shown here)

Data set [3] in a line: CPT release under acidic conditions (acetate buffer, pH 5) mimicking the lysosomal compartment. The following applies: for carbamate stability under acidic conditions: compared with pH 7.5. The procedure:
[26] The release of free CPT was also studied upon Sp2-CPT and Sp3-CPT incubation under more acidic conditions (acetate buffer, pH 5), mimicking the lysosomal compartment.

The mark [4] stands for this setting: DMSO/phosphate buffer (pH 7.5), 37 °C.

Molecules are shown by their SMILES.

Turning to `CC[C@@]1(OC(=O)N(C)C[C@@H]2CCON2)C(=O)OCc2c1cc1n(c2=O)Cc2cc3ccccc3nc2-1` [Sp5-CPT], the solubility result is on record as “partially insoluble” in data set [1] (9 : 1 aqueous buffer/DMSO mixture, pH 7.5) and “perfectly soluble” in data set [1] (phosphate buffer pH 7.5, DMSO content increased to 20 %). Also, the “cyclative carbamate cleavage (CPT release)” value in data set [2] (setting [4]) was “complete inhibition of the cyclative carbamate cleavage”. Moreover, in data set [2] (phosphate buffer pH 7.5, 20 % DMSO), the CPT release result is given as “no CPT release was observed”.
`CC[C@@]1(OC(=O)N(C)C[C@@H]2C[C@H](N(C)C)CN2)C(=O)OCc2c1cc1n(c2=O)Cc2cc3ccccc3nc2-1` [Sp6-CPT]: the half-life at 1 mM in data set [2] (setting [4]) was 5.5 h.
Regarding `CC[C@@]1(OC(=O)N(CCN(C)C)C[C@@H]2CCCN2)C(=O)OCc2c1cc1n(c2=O)Cc2cc3ccccc3nc2-1` [Sp3-CPT], in data set [2] (setting [4]), the “half-life compared with reference Sp2-CPT” value is on record as “four times shorter” and the half-life at 1 mM is 0.9 h. The “drug release activity under acidic conditions” value in data set [3] (compared with Sp2 reference) was “consistently higher drug release activity than the Sp2 reference”. For the same compound, the “carbamate stability under acidic conditions” value in data set [3] is given as “much more stable”.
In the case of `CC[C@@]1(OC(=O)N(C)C[C@@H]2CCCN2)C(=O)OCc2c1cc1n(c2=O)Cc2cc3ccccc3nc2-1` [Sp2-CPT, reference compound], in data set [2] (setting [4]), the half-life at 1 mM was 3.6 h. Moreover, the “carbamate stability under acidic conditions” value in data set [3] is on record as “much more stable”.
As to `CC[C@@]1(OC(=O)N(CCCN(C)C)C[C@@H]2CCCN2)C(=O)OCc2c1cc1n(c2=O)Cc2cc3ccccc3nc2-1` [Sp7-CPT], the half-life at 1 mM in data set [2] (setting [4]) is 3.3 h.
As for `CC[C@@]1(OC(=O)N(C)C[C@@H]2C[C@@H](OCCN(C)C)CN2)C(=O)OCc2c1cc1n(c2=O)Cc2cc3ccccc3nc2-1` [Sp8-CPT], the half-life at 1 mM in data set [2] (setting [4]) was 3.2 h.
